Source: PubChem BioAssay AID330 (DTP/NCI, 2004)
Several values for one entry are separate records, joined by “and”; a condition that tells them apart may be missing. Equal values may be shown once. Toxic doses and inconclusive results are not listed. The calls were made as follows: active = survival T/C of 150% or more; inactive = T/C below 125% in these data.

Test system: P388 leukemia ip, CD2F1 mice, survival T/C
Assay: NCI In Vivo Anticancer Drug Screen. Data for tumor model P388 Leukemia (intraperitoneal) in CD2F1 (CDF1) mice
Conditions: endpoint: median survival time, higher = longer survival
Method in brief: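 Mice carrying the transplanted tumor received test compound or vehicle. Survival was recorded in each group, and the value is the treated-group measurement divided by that of the vehicle-treated control group.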

[1] = dose: 50.0 mg/kg/injection, schedule: Q01DX005 (ip), vehicle: saline
[2] = dose: 100.0 mg/kg/injection, schedule: Q01DX005 (ip), vehicle: saline
[3] = dose: 12.5 mg/kg/injection, schedule: Q04DX003 (ip), vehicle: saline
[4] = dose: 25.0 mg/kg/injection, schedule: Q04DX003 (ip), vehicle: saline
[5] = dose: 50.0 mg/kg/injection, schedule: Q04DX003 (ip), vehicle: saline
[6] = dose: 50.0 mg/kg/injection, schedule: Q01DX009 (ip), vehicle: Klucel (hydroxypropylcellulose) (HPC)
[7] = dose: 100.0 mg/kg/injection, schedule: Q01DX009 (ip), vehicle: Klucel (hydroxypropylcellulose) (HPC)
[8] = dose: 200.0 mg/kg/injection, schedule: Q01DX009 (ip), vehicle: Klucel (hydroxypropylcellulose) (HPC)
[9] = dose: 25.0 mg/kg/injection, schedule: Q01DX009 (ip), vehicle: saline with Tween-80
[10] = dose: 50.0 mg/kg/injection, schedule: Q01DX009 (ip), vehicle: saline with Tween-80
[11] = dose: 100.0 mg/kg/injection, schedule: Q01DX009 (ip), vehicle: saline with Tween-80
[12] = dose: 100.0 mg/kg/injection, schedule: Q04DX003 (ip), vehicle: saline with Tween-80
[13] = dose: 50.0 mg/kg/injection, schedule: Q01DX009 (ip), vehicle: saline
[14] = dose: 100.0 mg/kg/injection, schedule: Q01DX009 (ip), vehicle: saline
[15] = dose: 200.0 mg/kg/injection, schedule: Q01DX009 (ip), vehicle: saline
[16] = dose: 60.0 mg/kg/injection, schedule: Q01DX005 (ip), vehicle: saline with Tween-80
[17] = dose: 120.0 mg/kg/injection, schedule: Q01DX005 (ip), vehicle: saline with Tween-80
[18] = dose: 240.0 mg/kg/injection, schedule: Q01DX005 (ip), vehicle: saline with Tween-80
[19] = dose: 200.0 mg/kg/injection, schedule: Q01DX009 (ip), vehicle: saline with Tween-80
[20] = dose: 50.0 mg/kg/injection, schedule: Q01DX005 (ip), vehicle: Klucel (hydroxypropylcellulose) (HPC)
[21] = dose: 100.0 mg/kg/injection, schedule: Q01DX005 (ip), vehicle: Klucel (hydroxypropylcellulose) (HPC)

Measured: T/C

CC(=O)Nc1ccc(C(=O)N/N=C/c2ccc(O)cc2)cc1
inactive: [1] 99 % of control | [2] 102 % of control | dose: 200.0 mg/kg/injection, schedule: Q01DX005 (ip), vehicle: saline 100 % of control

O=C1CNC(=O)N1CCO
inactive: [3] 99 % of control | [4] 106 % of control | [5] 98 % of control | dose: 100.0 mg/kg/injection, schedule: Q04DX003 (ip), vehicle: saline 99 % of control | dose: 200.0 mg/kg/injection, schedule: Q04DX003 (ip), vehicle: saline 104 % of control | dose: 400.0 mg/kg/injection, schedule: Q04DX003 (ip), vehicle: saline 104 % of control

Cc1ccc(S(=O)(=O)N/N=C/c2c(-c3ccc(Cl)cc3)nc3n2CCS3)cc1
inactive: dose: 100.0 mg/kg/injection, schedule: Q01DX001 (ip), vehicle: Klucel (hydroxypropylcellulose) (HPC) 100 % of control | dose: 200.0 mg/kg/injection, schedule: Q01DX001 (ip), vehicle: Klucel (hydroxypropylcellulose) (HPC) 92 % of control | dose: 400.0 mg/kg/injection, schedule: Q01DX001 (ip), vehicle: Klucel (hydroxypropylcellulose) (HPC) 94 % of control

C1CCC(C2CCCC[N-]2)[N-]C1.[Cl][Ru+2][Cl] (stereo not given)
inactive: dose: 7.5 mg/kg/injection, schedule: Q01DX005 (ip), vehicle: saline 103 % of control | dose: 15.0 mg/kg/injection, schedule: Q01DX005 (ip), vehicle: saline 100 % of control | dose: 30.0 mg/kg/injection, schedule: Q01DX005 (ip), vehicle: saline 103 % of control

Nc1[nH]c(=O)[nH]c(=O)c1S(=O)(=O)O
inactive: [6] 95 % of control | [7] 90 % of control | [8] 95 % of control

CN(C)c1nc(N)nc(Nc2ccc(Br)cc2)c1N=O
inactive: [9] 100 % of control | [10] 91 % of control | [7] 113 % of control | [11] 100 % of control | [12] 108 % of control | [8] 109 % of control | dose: 200.0 mg/kg/injection, schedule: Q04DX003 (ip), vehicle: saline with Tween-80 95 % of control | dose: 400.0 mg/kg/injection, schedule: Q01DX009 (ip), vehicle: Klucel (hydroxypropylcellulose) (HPC) 95 % of control | dose: 400.0 mg/kg/injection, schedule: Q04DX003 (ip), vehicle: saline with Tween-80 95 % of control

CC1(C2CCC3(C)OC3C2)CO1 (stereo not given)
inactive: dose: 50.0 mg/kg/injection, schedule: Q01DX005 (ip), vehicle: saline with Tween-80 100 % of control | dose: 100.0 mg/kg/injection, schedule: Q01DX005 (ip), vehicle: saline with Tween-80 100 % of control | dose: 200.0 mg/kg/injection, schedule: Q01DX005 (ip), vehicle: saline with Tween-80 100 % of control

CC(C)CC(=O)CC(=O)C(C)(C)C.CC(C)CC(=O)CC(=O)C(C)(C)C.[Cu]
inactive: dose: 25.0 mg/kg/injection, schedule: Q04DX003 (ip), vehicle: Klucel (hydroxypropylcellulose) (HPC) 100 % of control | dose: 50.0 mg/kg/injection, schedule: Q04DX003 (ip), vehicle: Klucel (hydroxypropylcellulose) (HPC) 101 % of control | dose: 100.0 mg/kg/injection, schedule: Q04DX003 (ip), vehicle: Klucel (hydroxypropylcellulose) (HPC) 98 % of control and 106 % of control

CO[Si](CCCN)(OC)OC
inactive: [13] 119 % of control | [14] 105 % of control | [15] 110 % of control

C=C1C(=O)OC2/C=C(\COC(C)=O)CC/C=C(/COC(=O)C(C)CC)CC(O)C12 (stereo not given) (tested in a mixture with another compound)
inactive: dose: 2.0 mg/kg/injection, schedule: Q01DX009 (ip), vehicle: Klucel (hydroxypropylcellulose) (HPC) 119 % of control | dose: 4.0 mg/kg/injection, schedule: Q01DX009 (ip), vehicle: Klucel (hydroxypropylcellulose) (HPC) 114 % of control | dose: 8.0 mg/kg/injection, schedule: Q01DX009 (ip), vehicle: Klucel (hydroxypropylcellulose) (HPC) 113 % of control | dose: 16.0 mg/kg/injection, schedule: Q01DX009 (ip), vehicle: Klucel (hydroxypropylcellulose) (HPC) 111 % of control | dose: 32.0 mg/kg/injection, schedule: Q01DX009 (ip), vehicle: Klucel (hydroxypropylcellulose) (HPC) 120 % of control

COc1ccc(C(=O)CCc2c[nH]c3ccccc23)c(O)c1
inactive: [16] 101 % of control | [17] 112 % of control | [18] 92 % of control

O=C(O)C1C2CC3C(OC(=O)C31)C2Br (stereo not given)
inactive: [16] 100 % of control | [17] 97 % of control | [18] 96 % of control

O=C(c1ccccc1)N1c2ccccc2N(C(=O)c2ccccc2)C1c1nc2ccccc2n1C(=O)c1ccccc1
inactive: [10] 109 % of control | [11] 100 % of control | [19] 102 % of control

O=C1OC(=O)C2=C1C1c3ccccc3C2c2ccccc21
inactive: dose: 12.5 mg/kg/injection, schedule: Q01DX005 (ip), vehicle: Klucel (hydroxypropylcellulose) (HPC) 100 % of control | dose: 25.0 mg/kg/injection, schedule: Q01DX005 (ip), vehicle: Klucel (hydroxypropylcellulose) (HPC) 109 % of control | [20] 108 % of control and 110 % of control | [21] 106 % of control

COC(CCC1CO1)OC (stereo not given)
inactive: [10] 100 % of control | [11] 96 % of control | [19] 99 % of control

CCOC(=N)c1ccc(C(=N)OCC)cc1
inactive: dose: 60.0 mg/kg/injection, schedule: Q01DX005 (ip), vehicle: saline 97 % of control | dose: 120.0 mg/kg/injection, schedule: Q01DX005 (ip), vehicle: saline 100 % of control | dose: 240.0 mg/kg/injection, schedule: Q01DX005 (ip), vehicle: saline 104 % of control

CC(O)(c1ccco1)c1nc2ccccc2s1 (stereo not given)
inactive: dose: 60.0 mg/kg/injection, schedule: Q01DX005 (ip), vehicle: Klucel (hydroxypropylcellulose) (HPC) 101 % of control | dose: 120.0 mg/kg/injection, schedule: Q01DX005 (ip), vehicle: Klucel (hydroxypropylcellulose) (HPC) 101 % of control

COC(=O)C1=CO[C@@H](OC2OC(CO)C(O)C(O)C2O)[C@H]2[C@@H]1C=C[C@@]21C=C([C@@H](C)O)C(=O)O1 (stereo not given in full)
inactive: dose: 1.63 mg/kg/injection, schedule: Q01DX005 (ip), vehicle: Klucel (hydroxypropylcellulose) (HPC) 99 % of control | dose: 3.25 mg/kg/injection, schedule: Q01DX005 (ip), vehicle: Klucel (hydroxypropylcellulose) (HPC) 101 % of control | dose: 6.5 mg/kg/injection, schedule: Q01DX005 (ip), vehicle: Klucel (hydroxypropylcellulose) (HPC) 101 % of control | dose: 13.0 mg/kg/injection, schedule: Q01DX005 (ip), vehicle: Klucel (hydroxypropylcellulose) (HPC) 95 % of control

O=C(Nc1ccc(C2=NCCN2)cc1)c1cc2ccc(C3=NCCN3)cc2[nH]1
inactive: [3] 101 % of control | [4] 112 % of control | [5] 118 % of control

C/C1=N/N=C(N)\N=C(\C)CC1
inactive: [13] 90 % of control | [14] 102 % of control | [15] 101 % of control

ClC1=C(Cl)[C@@]2(Cl)[C@H]3[C@H]4C[C@H]([C@@H]5O[C@H]45)[C@H]3[C@@]1(Cl)C2(Cl)Cl
inactive: dose: 12.5 mg/kg/injection, schedule: Q04DX003 (ip), vehicle: Klucel (hydroxypropylcellulose) (HPC) 95 % of control

O=NN1CCN(N=O)CC1
inactive: [9] 113 % of control | [10] 109 % of control | dose: 50.0 mg/kg/injection, schedule: Q04DX003 (ip), vehicle: saline with Tween-80 109 % of control | [12] 104 % of control

O=c1oc2ccccc2cc1-c1ccc(Br)c2ccccc12
inactive: [6] 93 % of control | [7] 100 % of control | [8] 95 % of control

O=C1C(Cl)=C(NCC2CCCN3CCCCC23)C(=O)c2ccccc21 (stereo not given)
inactive: [1] 113 % of control | [2] 117 % of control

CC(C)=NN(C)/C=N/S(=O)(=O)c1ccccc1
inactive: [20] 100 % of control | [21] 97 % of control | dose: 200.0 mg/kg/injection, schedule: Q01DX005 (ip), vehicle: Klucel (hydroxypropylcellulose) (HPC) 98 % of control
